Experimental data as given in US10407428B2, “Spiro-isoquinoline-1,4′-piperidine compounds having multimodal activity against pain” (ESTEVE PHARMACEUTICALS, S.A., priority 2014, dated 2019).
Read-outs that look alike come from different tables or passages of the source.

Tested on: human σ1 receptor and human μ-opioid receptor
Test: Human σ1 receptor radioligand assay and human μ-opioid receptor radioligand assay (μ and σ1 dual binding)
Set-up: key to μ and σ1 dual binding: +: Both Ki-μ and Ki-σ1>=500 nM; ++: One Ki<500 nM while the other Ki is >=500 nM; +++: Both Ki-μ and Ki-σ1<500 nM; ++++: Both Ki-μ and Ki-σ1<100 nM
[1] = combined class for Ki-μ ([3H]-DAMGO, CHO-K1 membranes) and Ki-σ1 ([3H](+)-pentazocine, HEK-293 membranes)

SMILES | μ and σ1 dual binding | Ki | other results
CCN(CC(C)C)C(=O)CN1CCC2(CC1)c1ccccc1CCN2C [Example 104, N-ethyl-N-isobutyl-2-(2-methyl-3,4-dihydro-2H-spiro[isoquinoline-1,4′-piperidine]-1′-yl)acetamide] | ++ | – | –
CN1CCc2ccccc2C12CCN(CC1CCOCC1)CC2 [Example 67, 2-methyl-1′-((tetrahydro-2H-pyran-4-yl)methyl)-3,4-dihydro-2H-spiro[isoquinoline-1,4′-piperidine]] | ++ | – | –
CN1CCc2ccccc2C12CCN(CC(O)c1ccncc1)CC2 (stereo not shown) [Example 98, 2-(2-methyl-3,4-dihydro-2H-spiro[isoquinoline-1,4′-piperidine]-1′-yl)-1-(pyridin-4-yl)ethanol] | – | < 500 nM | –
O=C(N1CCc2ccccc2C12CCN(CCc1ccccc1)CC2)C(F)(F)F [Example 132, 2,2,2-Trifluoro-1-(1′-phenethyl-3,4-dihydro-2H-spiro[isoquinoline-1,4′-piperidine]-2-yl)ethanone] | – | – | Ki [1]: ≥ 500 nM
CN(C(=O)CN1CCC2(CC1)c1ccccc1CCN2C)c1ccccc1 [Example 72, N-methyl-2-(2-methyl-3,4-dihydro-2H-spiro[isoquinoline-1,4′-piperidine]-1′-yl)-N-phenylacetamide] | ++ | – | –
CN1CCc2ccccc2C12CCN(CC(=O)N1CCCCC1)CC2 [Example 71, 2-(2-methyl-3,4-dihydro-2H-spiro[isoquinoline-1,4′-piperidine]-1′-yl)-1-(piperidin-1-yl)ethanone] | – | < 500 nM | –
CN(C)C(=O)CN1CCC2(CC1)c1ccccc1CCN2C [Example 73, N,N-dimethyl-2-(2-methyl-3,4-dihydro-2H-spiro[isoquinoline-1,4′-piperidine]-1′-yl)acetamide] | ++ | – | –
CCN1CCc2ccccc2C12CCN(CC(=O)N1CCC(F)(F)CC1)CC2 [Example 145, 1-(4,4-difluoropiperidin-1-yl)-2-(2-ethyl-3,4-dihydro-2H-spiro[isoquinoline-1,4′-piperidine]-1′-yl)ethanone] | – | < 500 nM | –
CN(C(=O)CCN1CCC2(CC1)c1ccccc1CCN2C)c1ccccc1 [Example 81, N-methyl-3-(2-methyl-3,4-dihydro-2H-spiro[isoquinoline-1,4′-piperidine]-1′-yl)-N-phenylpropanamide] | ++ | – | –
CN(C)C(=O)CCN1CCC2(CC1)c1ccccc1CCN2C [Example 68, N,N-dimethyl-3-(2-methyl-3,4-dihydro-2H-spiro[isoquinoline-1,4′-piperidine]-1′-yl)propanamide] | – | < 500 nM | –
CCOCCN1CCC2(CC1)c1ccccc1CCN2C(C)=O [Example 24, 1-(1′-(2-ethoxyethyl)-3,4-dihydro-2H-spiro[isoquinoline-1,4′-piperidine]-2-yl)ethanone] | ++ | – | –
COCCN(C(=O)CN1CCC2(CC1)c1ccccc1CCN2C)C(C)C [Example 108, N-isopropyl-N-(2-methoxyethyl)-2-(2-methyl-3,4-dihydro-2H-spiro[isoquinoline-1,4′-piperidine]-1′-yl)acetamide] | ++ | – | –
CCN1CCc2ccccc2C12CCN(CCN1CCOCC1)CC2 [Example 148, 4-(2-(2-ethyl-3,4-dihydro-2H-spiro[isoquinoline-1,4′-piperidine]-1′-yl)ethyl)morpholine] | ++ | – | –
CN1CCc2ccccc2C12CCN(CC(O)c1ccccn1)CC2 (stereo not shown) [Example 97, 2-(2-methyl-3,4-dihydro-2H-spiro[isoquinoline-1,4′-piperidine]-1′-yl)-1-(pyridin-2-yl)ethanol] | ++ | – | –
CN1CCc2ccccc2C12CCN(C[C@H](O)c1ccncc1)CC2 [Example 99, (R)-2-(2-methyl-3,4-dihydro-2H-spiro[isoquinoline-1,4′-piperidine]-1′-yl)-1-(pyridin-4-yl)ethanol] | – | < 500 nM | –
CCCN(CC)C(=O)CN1CCC2(CC1)c1ccccc1CCN2C [Example 105, N-ethyl-2-(2-methyl-3,4-dihydro-2H-spiro[isoquinoline-1,4′-piperidine]-1′-yl)-N-propylacetamide] | ++ | – | –
CN1CCc2ccccc2C12CCN(CCc1ccccn1)CC2 [Example 75, 2-methyl-1′-(2-(pyridin-2-yl)ethyl)-3,4-dihydro-2H-spiro[isoquinoline-1,4′-piperidine]] | – | < 500 nM | –
CC(=O)N1CCc2ccccc2C12CCN(CC1CC1)CC2 [Example 33, 1-(1′-(Cyclopropylmethyl)-3,4-dihydro-2H-spiro[isoquinoline-1,4′-piperidine]-2-yl)ethanone] | – | – | Ki [1]: ≥ 500 nM
CN1CCc2ccccc2C12CCN(CCc1ccccc1)CC2 [Example 54, 2-methyl-1′-phenethyl-3,4-dihydro-2H-spiro[isoquinoline-1,4′-piperidine]] | – | < 100 nM | –
CCN(CC1CC1)C(=O)CN1CCC2(CC1)c1ccccc1CCN2C [Example 101, N-(cyclopropylmethyl)-N-ethyl-2-(2-methyl-3,4-dihydro-2H-spiro[isoquinoline-1,4′-piperidine]-1′-yl)acetamide] | – | < 500 nM | –

SMILES | μ and σ1 dual binding | Ki | other results
OCCN1CCc2ccccc2C12CCN(CCc1cncc(C(F)(F)F)c1)CC2 [Example 128, 2-(1′-(2-(5-(trifluoromethyl)pyridin-3-yl)ethyl)-3,4-dihydro-2H-spiro[isoquinoline-1,4′-piperidine]-2-yl)ethanol] | – | < 500 nM | –
c1ccc(CCN2CCC3(CC2)c2ccccc2CCN3Cc2nccs2)cc1 [Example 64, 2-((1′-phenethyl-3,4-dihydro-2H-spiro[isoquinoline-1,4′-piperidine]-2-yl)methyl)thiazole] | – | < 500 nM | –
COc1ccc2c(c1)CCN(C)C21CCN(CCc2ccccc2)CC1 [Example 55, 6-methoxy-2-methyl-1′-phenethyl-3,4-dihydro-2H-spiro[isoquinoline-1,4′-piperidine]] | – | < 100 nM | –
CN1Cc2ccccc2C12CCN(CCc1ccccc1)CC2 [Example 140, 2-Methyl-1′-phenethylspiro[isoindoline-1,4′-piperidine]] | – | < 500 nM | –
CN1CCc2ccccc2C12CCN(CC(=O)N1CCCC1)CC2 [Example 90, 2-(2-methyl-3,4-dihydro-2H-spiro[isoquinoline-1,4′-piperidine]-1′-yl)-1-(pyrrolidin-1-yl)ethanone] | ++ | – | –
CN1CCc2ccccc2C12CCN(CCc1cccc(NS(C)(=O)=O)c1)CC2 [Example 118, N-(3-(2-(2-Methyl-3,4-dihydro-2H-spiro[isoquinoline-1,4′-piperidin]-1′-yl)ethyl)phenyl)methanesulfonamide] | – | < 100 nM | –
CC(=O)N1CCc2ccccc2C12CCN(CCC(C)C)CC2 [Example 15, 1-(1′-isopentyl-3,4-dihydro-2H-spiro[isoquinoline-1,4′-piperidine]-2-yl)ethanone] | – | < 500 nM | –
CCN(C(=O)CN1CCC2(CC1)c1ccccc1CN2C)C(C)C [Example 157, N-ethyl-N-isopropyl-2-(2-methylspiro[isoindoline-1,4′-piperidine]-1′-yl)acetamide] | – | – | Ki [1]: ≥ 500 nM
CN1CCc2ccccc2C12CCN(CC(=O)N1CCC(C(C)(C)O)CC1)CC2 [Example 59, 1-(4-(2-hydroxypropan-2-yl)piperidin-1-yl)-2-(2-methyl-3,4-dihydro-2H-spiro[isoquinoline-1,4′-piperidine]-1′-yl)ethanone] | – | – | Ki [1]: ≥ 500 nM
CN1CCc2ccccc2C12CCN(CC(O)c1cccnc1)CC2 (stereo not shown) [Example 96, 2-(2-methyl-3,4-dihydro-2H-spiro[isoquinoline-1,4′-piperidine]-1′-yl)-1-(pyridin-3-yl)etanol] | ++ | – | –
CCN(C(=O)CN1CCC2(CC1)c1ccccc1CCN2C)C(C)C [Example 89, N-ethyl-N-isopropyl-2-(2-methyl-3,4-dihydro-2H-spiro[isoquinoline-1,4′-piperidine]-1′-yl)acetamide] | – | < 500 nM | –
O=C(CN1CCC2(CC1)c1ccccc1CCN2CCO)N1CCCCC1 [Example 126, 2-(2-(2-Hydroxyethyl)-3,4-dihydro-2H-spiro[isoquinoline-1,4′-piperidine]-1′-yl)-1-(piperidin-1-yl)ethanone] | ++ | – | –
CC(=O)N1CCc2ccccc2C12CCN(CCOc1cccnc1)CC2 [Example 43, 1-(1′-(2-(pyridin-3-yloxy)ethyl)-3,4-dihydro-2H-spiro[isoquinoline-1,4′-piperidine]-2-yl)ethanone] | ++ | – | –
CS(=O)(=O)N1CCc2ccccc2C12CCN(CCc1ccccc1)CC2 [Example 53, 2-(Methylsulfonyl)-1′-phenethyl-3,4-dihydro-2H-spiro[isoquinoline-1,4′-piperidine]] | – | < 100 nM | –
CC(=O)N1CCc2ccccc2C12CCN(Cc1ccccn1)CC2 [Example 17, 1-(1′-(pyridin-2-ylmethyl)-3,4-dihydro-2H-spiro[isoquinoline-1,4′-piperidine]-2-yl)ethanone] | ++ | – | –
CC(=O)Oc1ccc2c(c1)CCN(C(C)=O)C21CCN(CCc2ccccc2)CC1 [Example 49, 2-Acetyl-1′-phenethyl-3,4-dihydro-2H-spiro[isoquinoline-1,4′-piperidine]-6-yl acetate] | – | – | Ki [1]: ≥ 500 nM
CC(C)OCCN1CCC2(CC1)c1ccccc1CCN2C [Example 78, 1′-(2-isopropoxyethyl)-2-methyl-3,4-dihydro-2H-spiro[isoquinoline-1,4′-piperidine]] | – | < 500 nM | –
CN1CCc2ccccc2C12CCN(C[C@@H](O)c1ccncc1F)CC2 [Example 143, (S)-1-(3-fluoropyridin-4-yl)-2-(2-methyl-3,4-dihydro-2H-spiro[isoquinoline-1,4′-piperidine]-1′-yl)ethanol] | – | < 500 nM | –
CCN(C(=O)CN1CCC2(CC1)c1ccccc1CCN2CC)C1CC1 [Example 154, N-cyclopropyl-N-ethyl-2-(2-ethyl-3,4-dihydro-2H-spiro[isoquinoline-1,4′-piperidine]-1′-yl)acetamide] | – | < 500 nM | –
CCC(CC)N(C)C(=O)CN1CCC2(CC1)c1ccccc1CCN2C [Example 111, N-methyl-2-(2-methyl-3,4-dihydro-2H-spiro[isoquinoline-1,4′-piperidine]-1′-yl)-N-(pentan-3-yl)acetamide] | – | < 500 nM | –
